This experiment relates to acute liver damage in mice as a result of alcohol. In words: acute liver damage in mice as a result of alcohol, liver tissue triglyceride (FIG. 3). Format: in vivo. The conditions noted are these: alcohol by gavage 6 g/kg body weight, XN 5 mg/kg and/or IAA 25 mg/kg body weight applied simultaneously, liver removed after 12 hours, P<0.05. The method, then: A model used was acute liver damage in mice as a result of alcohol. Alcohol was applied to the mice by gavage (6 g/kg body weight). Furthermore, xanthohumol (XN; 5 mg/kg body weight), iso-alpha-acid (IAA; 25 mg/kg body weight) and a combination of xanthohumol (5 mg/kg body weight) and iso-alpha-acid (25 mg/kg body weight) were simultaneously applied in the experimental groups. After 12 hours the animals were sacrificed, the liver tissue was removed, and the triglyceride (TG) […] therein was determined. A control group of untreated mice (no-Alc) was also tested. In the “alcohol group”, a significant increase in TG can be seen in comparison with the “non-alcohol group”.
Again, the significance level is P<0.05. CTR stands for a group of alcohol-treated mice without addition of xanthohumol, iso-alpha-acid or a combination of xanthohumol and iso-alpha-acid.

The structures appear in SMILES notation.

Turning to `COc1cc(O)c(CC=C(C)C)c(O)c1C(=O)/C=C/c1ccc(O)cc1` [xanthohumol], the “triglyceride (TG) content of liver tissue versus alcohol group” value is reported as “does not differ significantly”.

With `CC(C)=CCC(=O)[C@@]1(O)C(O)=C(C(=O)CC(C)C)C(=O)C1CC=C(C)C` (stereo partly drawn) [iso-alpha-acid], the “triglyceride (TG) content of liver tissue versus alcohol group” value is on record as “does not differ significantly”.
